Laboratory results reported in ChEMBL document CHEMBL3112424, “Discovery and optimization of pyrimidone indoline amide PI3Kβ inhibitors for the treatment of phosphatase and tensin homologue (PTEN)-deficient cancers” (J Med Chem, 2014).
In brackets after ≈: the same amount, converted by molar mass.

Experiments:
[1] = Solubility of the compound in phosphate buffer at pH 7.4 by HPLC analysis; settings: phosphate buffer
[2] = target: T1, Phosphatidylinositol 4,5-bisphosphate 3-kinase catalytic subunit beta isoform (Homo sapiens, UniProt P42338); assay: Inhibition of N-terminal ploy-His-tagged human PI3Kbeta expressed in baculovirus-infected sf21 cells using PI(4,5)P2 as substrate after 15 mins by HTRF assay
T1 sequence (P42338 whole entry, canonical isoform): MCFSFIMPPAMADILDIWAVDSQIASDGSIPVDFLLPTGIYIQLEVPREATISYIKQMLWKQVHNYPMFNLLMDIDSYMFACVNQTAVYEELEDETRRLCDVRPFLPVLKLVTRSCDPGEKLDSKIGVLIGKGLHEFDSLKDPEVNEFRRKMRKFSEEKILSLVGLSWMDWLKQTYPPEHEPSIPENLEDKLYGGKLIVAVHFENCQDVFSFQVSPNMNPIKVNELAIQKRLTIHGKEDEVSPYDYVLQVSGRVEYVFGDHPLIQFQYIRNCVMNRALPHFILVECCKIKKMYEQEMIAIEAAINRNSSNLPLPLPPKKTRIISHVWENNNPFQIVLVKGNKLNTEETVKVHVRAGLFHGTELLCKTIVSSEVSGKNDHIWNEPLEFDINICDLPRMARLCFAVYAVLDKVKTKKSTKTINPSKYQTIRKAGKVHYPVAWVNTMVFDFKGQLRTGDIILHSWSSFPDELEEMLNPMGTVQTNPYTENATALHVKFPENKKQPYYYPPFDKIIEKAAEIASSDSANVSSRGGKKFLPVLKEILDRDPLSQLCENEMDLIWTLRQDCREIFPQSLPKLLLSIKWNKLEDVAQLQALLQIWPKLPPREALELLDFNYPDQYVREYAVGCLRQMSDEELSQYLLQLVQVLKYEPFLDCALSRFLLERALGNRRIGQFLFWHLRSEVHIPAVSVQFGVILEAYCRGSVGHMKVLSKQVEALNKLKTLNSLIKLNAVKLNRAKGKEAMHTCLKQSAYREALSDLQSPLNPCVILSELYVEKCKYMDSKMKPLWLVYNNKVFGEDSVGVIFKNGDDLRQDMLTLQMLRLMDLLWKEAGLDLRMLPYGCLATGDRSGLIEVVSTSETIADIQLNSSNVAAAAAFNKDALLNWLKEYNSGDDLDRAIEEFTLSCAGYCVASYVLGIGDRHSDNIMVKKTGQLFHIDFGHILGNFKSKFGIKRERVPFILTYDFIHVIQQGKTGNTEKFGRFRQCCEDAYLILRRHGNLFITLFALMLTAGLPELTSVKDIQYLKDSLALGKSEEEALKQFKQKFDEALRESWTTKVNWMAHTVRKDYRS

[3] = target: T1, Phosphatidylinositol 4,5-bisphosphate 3-kinase catalytic subunit beta isoform; assay: Inhibition of PI3Kbeta-mediated Akt phosphorylation at S473 in PTEN-deficient human PC3 cells after 0.5 to 2 hrs by Immunoblotting assay; type: cell-based, PC-3
[4] = target: T2, Phosphatidylinositol 4,5-bisphosphate 3-kinase catalytic subunit delta isoform (Homo sapiens, UniProt O00329); assay: Inhibition of N-terminal ploy-His-tagged human PI3Kdelta expressed in baculovirus-infected sf9 cells using PI(4,5)P2 as substrate after 15 mins by HTRF assay
T2 sequence (O00329 whole entry): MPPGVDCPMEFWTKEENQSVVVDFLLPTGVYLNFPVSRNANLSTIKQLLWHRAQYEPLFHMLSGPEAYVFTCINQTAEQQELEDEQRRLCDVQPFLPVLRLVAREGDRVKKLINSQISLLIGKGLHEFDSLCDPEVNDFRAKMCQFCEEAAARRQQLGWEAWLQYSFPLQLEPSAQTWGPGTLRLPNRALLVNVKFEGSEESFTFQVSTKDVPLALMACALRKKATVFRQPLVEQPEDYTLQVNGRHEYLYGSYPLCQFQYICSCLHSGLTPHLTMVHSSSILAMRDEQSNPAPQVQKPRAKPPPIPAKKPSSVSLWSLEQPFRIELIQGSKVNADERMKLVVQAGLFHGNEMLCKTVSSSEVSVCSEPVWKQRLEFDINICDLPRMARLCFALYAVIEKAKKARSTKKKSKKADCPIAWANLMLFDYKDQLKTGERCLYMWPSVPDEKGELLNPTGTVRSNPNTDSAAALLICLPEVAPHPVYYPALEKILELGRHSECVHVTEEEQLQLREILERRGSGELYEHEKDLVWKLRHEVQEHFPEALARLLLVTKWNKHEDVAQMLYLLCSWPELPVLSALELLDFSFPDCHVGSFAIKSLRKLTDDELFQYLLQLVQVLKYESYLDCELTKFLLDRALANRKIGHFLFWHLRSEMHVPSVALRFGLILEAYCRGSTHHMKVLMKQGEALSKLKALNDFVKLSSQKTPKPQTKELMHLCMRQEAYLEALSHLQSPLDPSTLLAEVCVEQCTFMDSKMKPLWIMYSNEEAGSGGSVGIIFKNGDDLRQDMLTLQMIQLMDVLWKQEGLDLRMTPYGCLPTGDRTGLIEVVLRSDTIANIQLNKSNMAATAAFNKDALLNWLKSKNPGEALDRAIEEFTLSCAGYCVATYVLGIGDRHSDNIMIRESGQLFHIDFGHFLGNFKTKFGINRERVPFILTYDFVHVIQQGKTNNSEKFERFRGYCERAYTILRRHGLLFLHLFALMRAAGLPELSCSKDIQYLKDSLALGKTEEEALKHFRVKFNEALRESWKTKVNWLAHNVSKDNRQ

[5] = Metabolic stability in human liver microsomes at 5 uM after 20 mins
[6] = Metabolic stability in mouse liver microsomes at 5 uM after 20 mins
[7] = target: Phosphatidylinositol 4,5-bisphosphate 3-kinase catalytic subunit alpha isoform (Homo sapiens, UniProt P42336); assay: Inhibition of N-terminal ploy-His-tagged human PI3Kalpha expressed in baculovirus-infected sf9 cells using PI(4,5)P2 as substrate after 15 mins by HTRF assay
Chain of Phosphatidylinositol 4,5-bisphosphate 3-kinase catalytic subunit alpha isoform (P42336 whole entry, canonical isoform): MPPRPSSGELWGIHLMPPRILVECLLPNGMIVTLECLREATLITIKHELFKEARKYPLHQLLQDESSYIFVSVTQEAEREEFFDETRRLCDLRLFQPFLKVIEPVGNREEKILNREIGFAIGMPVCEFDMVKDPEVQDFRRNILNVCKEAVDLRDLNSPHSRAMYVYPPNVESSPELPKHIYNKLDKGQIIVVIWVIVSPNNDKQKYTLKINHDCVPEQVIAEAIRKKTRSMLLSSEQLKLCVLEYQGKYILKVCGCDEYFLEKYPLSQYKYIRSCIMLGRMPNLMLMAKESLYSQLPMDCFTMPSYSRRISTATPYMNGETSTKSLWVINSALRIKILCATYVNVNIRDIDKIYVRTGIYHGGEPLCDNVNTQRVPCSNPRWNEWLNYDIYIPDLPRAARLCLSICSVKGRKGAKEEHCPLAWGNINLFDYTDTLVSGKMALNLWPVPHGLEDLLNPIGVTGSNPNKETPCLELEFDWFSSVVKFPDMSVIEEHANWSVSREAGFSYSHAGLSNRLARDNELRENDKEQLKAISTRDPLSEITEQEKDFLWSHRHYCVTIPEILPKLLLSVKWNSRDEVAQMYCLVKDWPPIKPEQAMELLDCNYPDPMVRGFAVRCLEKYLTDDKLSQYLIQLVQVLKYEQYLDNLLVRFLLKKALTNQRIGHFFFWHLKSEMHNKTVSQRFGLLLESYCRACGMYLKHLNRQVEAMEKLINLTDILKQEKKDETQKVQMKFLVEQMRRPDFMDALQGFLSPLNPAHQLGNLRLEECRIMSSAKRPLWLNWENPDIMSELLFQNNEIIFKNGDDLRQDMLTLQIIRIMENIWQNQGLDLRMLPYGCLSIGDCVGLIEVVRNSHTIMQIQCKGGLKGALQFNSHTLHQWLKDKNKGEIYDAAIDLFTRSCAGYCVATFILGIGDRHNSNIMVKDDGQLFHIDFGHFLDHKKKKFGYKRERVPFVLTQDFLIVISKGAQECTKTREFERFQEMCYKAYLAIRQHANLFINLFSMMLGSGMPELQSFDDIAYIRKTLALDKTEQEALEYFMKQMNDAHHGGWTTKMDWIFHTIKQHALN

[8] = Apparent permeability in human Caco2 cells at 5 uM after 20 mins; settings: Caco-2
PC-3 = assay: Antitumor activity against po dosed PTEN-deficient human PC3 cells xenografted in nude mouse assessed as tumor growth inhibition administered as qd measured for 52 days; type: functional
[9] = target: Phosphatidylinositol 4,5-bisphosphate 3-kinase catalytic subunit gamma isoform (Homo sapiens, UniProt P48736); assay: Inhibition of C-terminal ploy-His-tagged human PI3Kgamma expressed in baculovirus-infected sf9 cells using PI(4,5)P2 as substrate after 15 mins by HTRF assay
Chain of Phosphatidylinositol 4,5-bisphosphate 3-kinase catalytic subunit gamma isoform (P48736 whole entry, canonical isoform): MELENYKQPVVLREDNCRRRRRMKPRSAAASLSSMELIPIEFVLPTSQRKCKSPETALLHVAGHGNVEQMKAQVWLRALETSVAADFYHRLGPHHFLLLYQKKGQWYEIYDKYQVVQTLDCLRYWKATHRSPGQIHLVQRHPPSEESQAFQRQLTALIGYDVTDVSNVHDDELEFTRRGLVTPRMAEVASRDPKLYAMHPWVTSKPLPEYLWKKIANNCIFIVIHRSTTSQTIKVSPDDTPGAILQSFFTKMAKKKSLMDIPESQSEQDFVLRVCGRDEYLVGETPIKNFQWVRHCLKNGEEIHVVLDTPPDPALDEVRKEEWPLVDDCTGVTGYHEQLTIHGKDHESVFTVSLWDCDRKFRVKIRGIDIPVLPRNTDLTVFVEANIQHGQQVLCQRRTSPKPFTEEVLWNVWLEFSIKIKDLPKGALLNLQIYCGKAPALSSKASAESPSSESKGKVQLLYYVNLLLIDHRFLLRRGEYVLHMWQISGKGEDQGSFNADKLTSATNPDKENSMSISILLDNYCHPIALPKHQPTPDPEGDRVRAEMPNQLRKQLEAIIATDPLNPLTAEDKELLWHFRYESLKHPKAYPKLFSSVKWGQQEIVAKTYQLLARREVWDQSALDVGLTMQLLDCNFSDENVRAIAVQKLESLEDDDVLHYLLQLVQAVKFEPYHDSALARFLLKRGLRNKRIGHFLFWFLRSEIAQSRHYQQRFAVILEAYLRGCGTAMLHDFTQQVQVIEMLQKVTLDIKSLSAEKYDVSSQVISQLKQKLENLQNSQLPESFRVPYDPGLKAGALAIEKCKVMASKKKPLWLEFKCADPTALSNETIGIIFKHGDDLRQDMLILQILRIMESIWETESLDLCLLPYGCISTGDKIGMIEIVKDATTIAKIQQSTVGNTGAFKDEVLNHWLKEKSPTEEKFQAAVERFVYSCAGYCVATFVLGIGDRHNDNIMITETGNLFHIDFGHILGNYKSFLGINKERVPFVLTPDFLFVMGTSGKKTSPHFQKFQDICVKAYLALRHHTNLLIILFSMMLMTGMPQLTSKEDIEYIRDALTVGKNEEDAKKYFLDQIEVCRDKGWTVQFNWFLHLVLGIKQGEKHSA

Cytochrome P450 3A4 = Cytochrome P450 3A4 (Homo sapiens, UniProt P08684); assay: Inhibition of recombinant human CYP3A4
Chain of Cytochrome P450 3A4 (P08684 whole entry): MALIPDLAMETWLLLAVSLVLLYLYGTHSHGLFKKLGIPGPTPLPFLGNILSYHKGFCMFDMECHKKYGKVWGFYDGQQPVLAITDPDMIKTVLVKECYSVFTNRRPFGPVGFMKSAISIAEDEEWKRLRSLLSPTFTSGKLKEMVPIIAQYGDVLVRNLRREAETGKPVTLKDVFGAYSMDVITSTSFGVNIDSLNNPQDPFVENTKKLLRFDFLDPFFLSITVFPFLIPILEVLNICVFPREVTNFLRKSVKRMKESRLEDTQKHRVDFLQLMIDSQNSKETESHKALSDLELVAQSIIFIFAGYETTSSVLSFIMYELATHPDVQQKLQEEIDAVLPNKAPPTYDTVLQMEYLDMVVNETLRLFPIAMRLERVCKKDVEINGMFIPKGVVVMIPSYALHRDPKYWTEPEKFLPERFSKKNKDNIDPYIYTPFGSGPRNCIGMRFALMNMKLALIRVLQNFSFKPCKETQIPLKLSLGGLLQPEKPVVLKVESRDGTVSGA

[10] = Dissociation constant, pKa of the compound; type: physicochemical
[11] = Lipophilicity, log D of the compound; type: physicochemical; settings: octanol/water

SMILES | solubility [1] [µM] | IC50 [2] [nM] | IC50 [3] [nM] | IC50 [4] [nM] | remaining at 20 min, 5 µM ([5]; liver microsomes) [%] | remaining at 20 min, 5 µM ([6]; liver microsomes) [%] | IC50 [7] [nM] | Papp at 20 min, 5 µM [8] [×10⁻⁶ cm/s] | IC50 [9] [nM] | IC50 (Cytochrome P450 3A4) [nM] | pKa [10] | logD [11] | T/C (PC-3) [%] | remaining at 20 min, 5 µM ([5]; microsomes) [%] | remaining at 20 min, 5 µM ([6]; microsomes) [%]
Cn1c(CC(=O)N2CCc3ccccc32)nc(N2CCOCC2)cc1=O | 36 (≈ 12.8 µg/mL) | 48 | 20 | 278 | 14 | 37 | 4320 | 8.3 | – | – | – | – | – | – | –
C[C@H]1c2cccc(O)c2C(=O)C2=C(O)[C@]3(O)C(=O)C(C(N)=O)=C(O)[C@@H](N(C)C)[C@@H]3[C@@H](O)[C@@H]21.O [DOXYCYCLINE] | – | – | – | – | – | – | – | – | – | – | – | – | 49 | – | –
O=C(Cc1nc(N2CCOCC2)cc(=O)[nH]1)N1CCc2c(F)cccc21 | – | – | – | 122 | – | – | 2450 | – | 6220 | – | – | – | – | 19 | 9
Cn1c(Cc2nc(N3CCOCC3)cc(=O)[nH]2)nc2ccccc21 | – | – | – | – | – | – | – | – | 10000 | – | – | – | – | – | –
COc1cccc2c1CCN2C(=O)Cc1nc(N2CCOCC2)cc(=O)[nH]1 | 5 (≈ 1.85 µg/mL) | 41 | 60 | 648 | 0 | 70 | 2420 | 0.6 | – | 40000 | – | – | – | – | –
CN1CCN(Cc2cccc3c2CCN3C(=O)Cc2nc(N3CCOCC3)cc(=O)[nH]2)CC1 | 4420 (≈ 2000 µg/mL) | 332 | 272 | 2 | – | – | 660 | – | – | – | – | – | – | – | –
CC1(C)Cc2ccccc2N1C(=O)Cc1nc(N2CCOCC2)cc(=O)[nH]1 | 46 (≈ 16.9 µg/mL) | 102 | 78 | 580 | – | – | – | – | – | – | – | – | – | – | –
O=C(Cc1nc(N2CCOCC2)cc(=O)[nH]1)N1CCc2cc(Cl)ccc21 | 3 (≈ 1.12 µg/mL) | 79 | 124 | 4130 | 34 | 36 | 2020 | 1.4 | 10000 | 40000 | – | – | – | – | –
O=C(Cc1nc(N2CCOCC2)cc(=O)[nH]1)N1CCc2c(-c3ccccn3)cccc21 | 110 (≈ 45.9 µg/mL) | 98 | 66 | 106 | 36 | 40 | 2380 | 4.2 | 8970 | 11000 | – | – | – | – | –
CN1CCN(c2cccc3c2CCN3C(=O)Cc2nc(N3CCOCC3)cc(=O)[nH]2)CC1 | 1500 (≈ 656 µg/mL) | 407 | 167 | 22 | – | – | 960 | – | 10000 | – | – | – | – | – | –
CC1CN(C(=O)Cc2nc(N3CCOCC3)cc(=O)[nH]2)c2ccccc21 (racemic) | 3 (≈ 1.06 µg/mL) | 22 | 13 | 87 | 47 | 40 | 2260 | 7.5 | 10000 | 40000 | – | – | – | – | –
CC1Cc2ccccc2N1C(=O)Cc1nc(N2CCOCC2)cc(=O)[nH]1 (racemic) | 2750 (≈ 976 µg/mL) | 4 | 6 | 36 | – | – | – | – | 9150 | – | – | – | – | – | –
CC1(C)CN(C(=O)Cc2nc(N3CCOCC3)cc(=O)[nH]2)c2ccccc21 | 46 (≈ 16.9 µg/mL) | 17 | 28 | 278 | 83 | 87 | 5420 | 4 | – | 40000 | – | – | – | – | –
C[C@@H]1Cc2ccccc2N1C(=O)Cc1nc(N2CCOCC2)cc(=O)[nH]1 | 2500 (≈ 885 µg/mL) | 6 | 12 | 6 | 43 | 52 | – | 5.1 | 3320 | 40000 | – | – | – | – | –
O=C(Cc1nc(N2CCOCC2)cc(=O)[nH]1)N1CCc2c(OC(F)(F)F)cccc21 | 12 (≈ 5.09 µg/mL) | 33 | 54 | 34 | 48 | 44 | 1000 | 4.1 | 7420 | 40000 | – | – | – | – | –

Now from value to compound, other results behind:

solubility [1] [µM] | IC50 [2] [nM] | IC50 [3] [nM] | IC50 [4] [nM] | remaining at 20 min, 5 µM ([5]; liver microsomes) [%] | remaining at 20 min, 5 µM ([6]; liver microsomes) [%] | IC50 [7] [nM] | Papp at 20 min, 5 µM [8] [×10⁻⁶ cm/s] | IC50 [9] [nM] | IC50 (Cytochrome P450 3A4) [nM] | pKa [10] | logD [11] | SMILES | T/C (PC-3) [%] | remaining at 20 min, 5 µM ([5]; microsomes) [%] | remaining at 20 min, 5 µM ([6]; microsomes) [%]
69 (≈ 28.8 µg/mL) | 10 | 94 | 22 | 43 | 44 | 1000 | 0.4 | 1000 | 31000 | 4.5 | 1.99 | O=C(Cc1nc(N2CCOCC2)cc(=O)[nH]1)N1CCc2c(-c3ccncc3)cccc21 | – | – | –
12 (≈ 4.08 µg/mL) | 4 | 15 | 28 | 12 | 21 | 460 | 5.9 | 10000 | 40000 | – | – | O=C(Cc1nc(N2CCOCC2)cc(=O)[nH]1)N1CCc2ccccc21 | – | – | –
60 (≈ 25 µg/mL) | 17 | 53 | 7 | 29 | 49 | 361 | 0.8 | 2460 | 40000 | 4.5 | 1.99 | O=C(Cc1nc(N2CCOCC2)cc(=O)[nH]1)N1CCc2c(-c3cccnc3)cccc21 | – | – | –
3 (≈ 1.06 µg/mL) | 5 | 3 | 24 | 32 | 60 | 138 | 7.4 | 1780 | – | – | – | Cc1cccc2c1CCN2C(=O)Cc1nc(N2CCOCC2)cc(=O)[nH]1 | – | – | –
31 (≈ 11.1 µg/mL) | 4 | 7 | 17 | 18 | 14 | 426 | 3 | 1590 | 40000 | – | – | O=C(Cc1nc(N2CCOCC2)cc(=O)[nH]1)N1CCc2cc(F)ccc21 | – | – | –
5 (≈ 1.87 µg/mL) | 1 | 3 | 21 | 18 | 27 | 86 | 8.8 | 1130 | 40000 | – | – | O=C(Cc1nc(N2CCOCC2)cc(=O)[nH]1)N1CCc2c(Cl)cccc21 | – | – | –
12 (≈ 4.9 µg/mL) | 10 | 9 | 98 | 24 | 13 | 390 | 4.6 | 8400 | 40000 | – | – | O=C(Cc1nc(N2CCOCC2)cc(=O)[nH]1)N1CCc2c1cccc2C(F)(F)F | – | – | –
– | 8 | 24 | 18 | 40 | 25 | 217 | 7.1 | 1530 | 40000 | – | – | O=C(Cc1nc(N2CCOCC2)cc(=O)[nH]1)N1CCc2c(-c3ccccc3)cccc21 | – | – | –
2 (≈ 0.839 µg/mL) | 6 | 1 | 55 | 24 | 22 | 85 | 4.2 | 3980 | 40000 | – | – | O=C(Cc1nc(N2CCOCC2)cc(=O)[nH]1)N1CCc2c(Br)cccc21 | – | – | –
